For this test, the target named is T1, myeloperoxidase (MPO) (Homo sapiens, UniProt P05164).
T1 sequence (P05164 49-745): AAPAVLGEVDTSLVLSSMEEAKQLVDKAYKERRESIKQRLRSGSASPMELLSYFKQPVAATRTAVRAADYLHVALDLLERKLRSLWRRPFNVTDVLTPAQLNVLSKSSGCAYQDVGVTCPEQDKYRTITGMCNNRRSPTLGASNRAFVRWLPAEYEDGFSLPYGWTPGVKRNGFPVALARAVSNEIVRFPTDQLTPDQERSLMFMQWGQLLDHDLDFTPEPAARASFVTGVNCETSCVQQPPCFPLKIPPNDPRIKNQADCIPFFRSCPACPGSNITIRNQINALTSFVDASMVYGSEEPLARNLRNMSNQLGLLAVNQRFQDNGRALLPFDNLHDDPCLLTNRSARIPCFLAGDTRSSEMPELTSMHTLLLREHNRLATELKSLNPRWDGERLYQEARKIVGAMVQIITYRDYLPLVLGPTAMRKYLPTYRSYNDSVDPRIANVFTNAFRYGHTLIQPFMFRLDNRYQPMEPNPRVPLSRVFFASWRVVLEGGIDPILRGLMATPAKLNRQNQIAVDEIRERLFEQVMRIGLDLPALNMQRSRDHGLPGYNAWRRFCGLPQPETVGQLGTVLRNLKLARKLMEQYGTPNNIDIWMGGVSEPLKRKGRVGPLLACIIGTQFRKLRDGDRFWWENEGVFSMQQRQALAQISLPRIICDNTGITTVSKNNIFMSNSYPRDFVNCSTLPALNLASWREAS
Kind of test: MPO peroxidation assay (Amplex Red assay). The class given is biochemical. As to conditions: MPO peroxidation, potency range class; read-out: Amplex Red IC50. In short, it runs like this: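 MPO (200 pM) with 40 nM H2O2 was preincubated 10 min at room temperature with inhibitor in 100 mM KPi pH 7.4. A mix of Amplex Red (200 μM) and H2O2 (10 mM) was then added and resorufin fluorescence read kinetically for 15 min. Slopes over 180–540 s gave % inhibition and IC50 via a four-parameter Hill fit.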
As a reminder, the IC50 is the concentration that inhibits the measured activity by half. Turning to `CS(=O)(=O)c1cc(Cl)ccc1COc1cc(N)nc2[nH]nnc12` [Example 131, 7-(4-Chloro-2-(methylsulfonyl)benzyloxy)-3H-[1,2,3]triazolo[4,5-b]pyridin-5-amine], the IC50 was in the range of 1 to 100 nM.

As for `Nc1cc(OCC2CCCCC2)c2nn[nH]c2n1` [Example 132, 7-(Cyclohexylmethoxy)-3H-[1,2,3]triazolo[4,5-b]pyridin-5-amine], the IC50 was in the range of 101 to 999 nM.

For the molecule `CC(Oc1cc(N)nc2[nH]nnc12)c1ccccc1F` (stereo not drawn) [Example 140, 7-(1-(2-Fluorophenyl)ethoxy)-3H-[1,2,3]triazolo[4,5-b]pyridin-5-amine], the half-inhibitory concentration (IC50) was in the range of 101 to 999 nM.

Turning to `CC(Oc1cc(N)nc2[nH]nnc12)c1ccc(OC(F)(F)F)cc1` (stereo not drawn) [Example 142, 7-(1-(4-(Trifluoromethoxy)phenyl)ethoxy)-3H-[1,2,3]triazolo[4,5-b]pyridin-5-amine], the IC50 fell in the range of 1000 to 10000 nM.

As to `CC(Oc1cc(N)nc2[nH]nnc12)c1cccc(OC(F)(F)F)c1` (stereo not drawn) [Example 143, 7-(1-(3-(Trifluoromethoxy)phenyl)ethoxy)-3H-[1,2,3]triazolo[4,5-b]pyridin-5-amine], the IC50 was in the range of 101 to 999 nM.

On to `CC(=O)Nc1cccc(C(C)Oc2cc(N)nc3[nH]nnc23)c1` (stereo not drawn) [Example 144, N-(3-(1-(5-Amino-3H-[1,2,3]triazolo[4,5-b]pyridin-7-yloxy)ethyl)phenyl)acetamide], for which the concentration for half-maximal inhibition (IC50) lay in the range of 101 to 999 nM.

Regarding `CCC(Oc1cc(N)nc2[nH]nnc12)c1ccc(Cl)c(Cl)c1` (stereo not drawn) [Example 145, 7-(1-(3,4-Dichlorophenyl)propoxy)-3H-[1,2,3]triazolo[4,5-b]pyridin-5-amine], the half-maximal inhibitory concentration (IC50) lay within 101 to 999 nM.

As for `Nc1cc(OCc2ccc3ccccc3c2)c2nn[nH]c2n1` [Example 147, 7-(Naphthalen-2-ylmethoxy)-3H-[1,2,3]triazolo[4,5-b]pyridin-5-amine], the IC50 was 101 to 999 nM.

Regarding `Nc1cc(OCc2cccc(Br)c2)c2nn[nH]c2n1` [Example 148, 7-(3-Bromobenzyloxy)-3H-[1,2,3]triazolo[4,5-b]pyridin-5-amine], the IC50 was 1 to 100 nM.

With `Nc1cc(OCc2cc(C(=O)N3CCCC3)ccc2F)c2nn[nH]c2n1` [Example 152, (3-((5-amino-3H-[1,2,3]triazolo[4,5-b]pyridin-7-yloxy)methyl)-4-fluorophenyl)(pyrrolidin-1-yl)methanone], the IC50 lay within 101 to 999 nM.

For `Nc1cc(OCc2cc(C(=O)N3CCC(O)CC3)ccc2F)c2nn[nH]c2n1` [Example 153, (3-((5-amino-3H-[1,2,3]triazolo[4,5-b]pyridin-7-yloxy)methyl)-4-fluorophenyl)(4-hydroxypiperidin-1-yl)methanone], the half-maximal inhibitory concentration (IC50) fell in the range of 101 to 999 nM.

For `CN(CCO)C(=O)c1ccc(F)c(COc2cc(N)nc3[nH]nnc23)c1` [Example 154, 3-((5-amino-3H-[1,2,3]triazolo[4,5-b]pyridin-7-yloxy)methyl)-4-fluoro-N-(2-hydroxyethyl)-N-methylbenzamide], the IC50 lay within 101 to 999 nM.

Turning to `Nc1cc(OCc2cc(C(=O)Nc3nnc(C(F)(F)F)s3)ccc2F)c2nn[nH]c2n1` [Example 155, 3-((5-amino-3H-[1,2,3]triazolo[4,5-b]pyridin-7-yloxy)methyl)-4-fluoro-N-(5-(trifluoromethyl)-1,3,4-thiadiazol-2-yl)benzamide], the IC50 is 101 to 999 nM.

For the molecule `Nc1cc(OCc2cc(C(=O)NCCCN3CCCC3=O)ccc2F)c2nn[nH]c2n1` [Example 156, 3-((5-amino-3H-[1,2,3]triazolo[4,5-b]pyridin-7-yloxy)methyl)-4-fluoro-N-(3-(2-oxopyrrolidin-1-yl)propyl) benzamide], the half-inhibitory concentration (IC50) fell in the range of 101 to 999 nM.

For `CC(NC(=O)c1ccc(F)c(COc2cc(N)nc3[nH]nnc23)c1)c1ccccc1` (stereo not drawn) [Example 157, 3-((5-amino-3H-[1,2,3]triazolo[4,5-b]pyridin-7-yloxy)methyl)-4-fluoro-N-(1-phenylethyl)benzamide], the IC50 lay within 1 to 100 nM.

On to `COCCNC(=O)c1ccc(F)c(COc2cc(N)nc3[nH]nnc23)c1` [Example 158, 3-((5-amino-3H-[1,2,3]triazolo[4,5-b]pyridin-7-yloxy)methyl)-4-fluoro-N-(2-methoxyethyl)benzamide], for which the IC50 fell in the range of 1 to 100 nM.

Take `CN(C(=O)c1ccc(F)c(COc2cc(N)nc3[nH]nnc23)c1)c1ccccc1` [Example 159, 3-((5-amino-3H-[1,2,3]triazolo[4,5-b]pyridin-7-yloxy)methyl)-4-fluoro-N-methyl-N-phenylbenzamide]: the half-inhibitory concentration (IC50) lay within 1 to 100 nM.

On to `Nc1cc(OCc2cc(C(=O)NC3(CO)CCCC3)ccc2F)c2nn[nH]c2n1` [Example 160, 3-((5-amino-3H-[1,2,3]triazolo[4,5-b]pyridin-7-yloxy)methyl)-4-fluoro-N-(1-(hydroxymethyl)cyclopentyl) benzamide], for which the half-maximal inhibitory concentration (IC50) fell in the range of 101 to 999 nM.

On to `NC(=O)CNC(=O)c1ccc(F)c(COc2cc(N)nc3[nH]nnc23)c1` [Example 161, N-(2-amino-2-oxoethyl)-3-((5-amino-3H-[1,2,3]triazolo[4,5-b]pyridin-7-yloxy)methyl)-4-fluorobenzamide], for which the 50% inhibitory concentration (IC50) was in the range of 1 to 100 nM.

As for `Nc1cc(OCc2cc(C(=O)NCC3CC3)ccc2F)c2nn[nH]c2n1` [Example 162, 3-((5-amino-3H-[1,2,3]triazolo[4,5-b]pyridin-7-yloxy)methyl)-N-(cyclopropylmethyl)-4-fluorobenzamide], the IC50 lay within 1 to 100 nM.

With `Nc1cc(OCc2cc(C(=O)NC3CCC(O)CC3)ccc2F)c2nn[nH]c2n1` (stereo not drawn) [Example 163], the IC50 lay in the range of 101 to 999 nM.

On to `CN1CCC(N(C)C(=O)c2ccc(F)c(COc3cc(N)nc4[nH]nnc34)c2)C1` (stereo not drawn) [Example 164], for which the IC50 was in the range of 101 to 999 nM.

With `Nc1cc(OCc2cc(C(=O)N3CC[C@@H](O)C3)ccc2F)c2nn[nH]c2n1` [Example 166, (R)-(3-((5-amino-3H-[1,2,3]triazolo [4,5-b]pyridin-7-yloxy)methyl)-4-fluorophenyl)(3-hydroxypyrrolidin-1-yl)methanone], the half-inhibitory concentration (IC50) was in the range of 101 to 999 nM.

For `Nc1cc(OCc2cc(C(=O)N3CCNC(=O)C3)ccc2F)c2nn[nH]c2n1` [Example 169, 4-(3-((5-amino-3H-[1,2,3]triazolo [4,5-b]pyridin-7-yloxy)methyl)-4-fluorobenzoyl)piperazin-2-one], the IC50 was 101 to 999 nM.

With `NC(=O)CCNC(=O)c1ccc(F)c(COc2cc(N)nc3[nH]nnc23)c1` [Example 170, N-(3-amino-3-oxopropyl)-3-((5-amino-3H-[1,2,3]triazolo[4,5-b]pyridin-7-yloxy)methyl)-4-fluorobenzamide], the IC50 was 1 to 100 nM.

On to `COC(=O)c1ccc(Cl)c(COc2cc(N)nc3[nH]nnc23)c1` [Example 171, Methyl 3-((5-amino-3H-[1,2,3]triazolo[4,5-b]pyridin-7-yloxy)methyl)-4-chlorobenzoate], for which the IC50 lay in the range of 1 to 100 nM.

Take `Nc1cc(OCc2cc(C(=O)NCc3ccccc3)ccc2Cl)c2nn[nH]c2n1` [Example 173, 3-((5-amino-3H-[1,2,3]triazolo [4,5-b]pyridin-7-yloxy)methyl)-N-benzyl-4-chlorobenzamide]: the 50% inhibitory concentration (IC50) lay in the range of 1 to 100 nM.

Take `CN(C(=O)c1ccc(Cl)c(COc2cc(N)nc3[nH]nnc23)c1)c1ccccc1` [Example 175, 3-((5-amino-3H-[1,2,3]triazolo [4,5-b]pyridin-7-yloxy)methyl)-4-chloro-N-methyl-N-phenylbenzamide]: the IC50 is 1 to 100 nM.

On to `Nc1cc(OCc2cc(C(=O)N3CCC(O)C3)ccc2Cl)c2nn[nH]c2n1` (stereo not drawn) [Example 176, (3-((5-amino-3H-[1,2,3]triazolo [4,5-b]pyridin-7-yloxy)methyl)-4-chlorophenyl)(3-hydroxypyrrolidin-1-yl)methanone], for which the IC50 fell in the range of 101 to 999 nM.

Take `Nc1cc(OCc2cc(C(=O)N3CCC[C@@H]3CO)ccc2Cl)c2nn[nH]c2n1` [Example 178, (R)-(3-((5-amino-3H-[1,2,3]triazolo[4,5-b]pyridin-7-yloxy)methyl)-4-chlorophenyl)(2-(hydroxymethyl)pyrrolidin-1-yl)methanone]: the 50% inhibitory concentration (IC50) is 101 to 999 nM.

In the case of `Nc1cc(OCc2cc(C(=O)N3CCC[C@H]3CO)ccc2Cl)c2nn[nH]c2n1` [Example 179, (S)-(3-((5-amino-3H-[1,2,3]triazolo[4,5-b]pyridin-7-yloxy)methyl)-4-chlorophenyl)(2-(hydroxymethyl)pyrrolidin-1-yl)methanone], the concentration for half-maximal inhibition (IC50) was in the range of 101 to 999 nM.

For `Nc1cc(OCc2cc(C(=O)N3CCC3)ccc2Cl)c2nn[nH]c2n1` [Example 182, (3-((5-amino-3H-[1,2,3]triazolo [4,5-b]pyridin-7-yloxy)methyl)-4-chlorophenyl)(azetidin-1-yl)methanone], the half-maximal inhibitory concentration (IC50) lay within 101 to 999 nM.

As for `Nc1cc(OCc2cc(C(=O)N(CCO)Cc3ccccc3)ccc2Cl)c2nn[nH]c2n1` [Example 183, 3-((5-amino-3H-[1,2,3]triazolo [4,5-b]pyridin-7-yloxy)methyl)-N-benzyl-4-chloro-N-(2-hydroxyethyl)benzamide], the half-inhibitory concentration (IC50) lay within 101 to 999 nM.

The record behind these values is US10316035B2, “Triazolopyridine inhibitors of myeloperoxidase” (BRISTOL-MYERS SQUIBB COMPANY, priority 2015, dated 2019).
